Results as given in article PMC7582905, “Effect of Disulfide Cyclization of Ultrashort Cationic Lipopeptides on Antimicrobial Activity and Cytotoxicity” (International Journal of Molecular Sciences, 2020).
≈ marks a conversion by molar mass, not a printed value. Where a SMILES comes first, the peptide text is derived from it. The star is where a group is joined. Palmitoyl = CCCCCCCCCCCCCCCC(=O)*

Tests used:
Assay type in all cases: cell-based
[1] = tested on: human red blood cells (hRBCs); test: Hemolysis assay; settings: peptide concentration causing 50% hemolysis; 4% (v/v) hRBCs in PBS, 1 h, 37 °C, absorbance 540 nm, triplicate
Protocol: The hemolysis assay was performed by using the method reported previously. Fresh human red blood cells (hRBCs) with anticoagulant (EDTA) were rinsed three times with a PBS by centrifugation at 800× g for 10 min and diluted with PBS. The lipopeptides were serially diluted on a 96-well microtiter polystyrene plate and hRBCs were added up to a final volume of 100 μL. The peptide concentration ranged between 0.5 and 256 μg/mL and the final hRBCs concentration was 4% (v/v). Controls for zero hemolysis (blank) and 100% hemolysis consisted of hRBCs suspended in PBS and 1% of Triton-X 100, respectively. The plate was incubated for 1 h at 37 °C and then centrifuged (800× g, 10 min, 4 °C). Subsequently, the supernatant was […] to new microtiter plates and the absorbance at 540 nm was measured. All experiments were conducted in triplicate. HC50 was calculated using an ic50.tk tool. Protocol of the study received approval from the local Bioethics Committee at the Medical University of Gdańsk (NKBBN/262/2019, approval date: 10 June 2019).

[2] = tested on: Staphylococcus epidermidis ATCC 14990; settings: ATCC 14990, 24 h
Protocol: (§1) The Staphylococcus aureus ATCC 25923, Staphylococcus epidermidis ATCC 14990, Escherichia coli ATCC 25922, Pseudomonas aeruginosa ATCC 9027, Candida albicans ATCC 10231, Candida glabrata ATCC 15126, Candida lipolytica PCM 2680-FY, and Candida tropicalis PCM 2709-FY strains were acquired from the Polish Collection of Microorganisms (PCM, Polish Academy of Sciences, Wrocław, Poland) and from the American Type Culture Collection (ATCC). All the strains were stored at −80 °C in Roti-Store cryo vials and before the tests were transferred into fresh Mueller–Hinton broth (MHB, Biocorp, Warsaw, Poland) for bacteria or RPMI-1640 (Sigma-Aldrich, Steinheim, Germany) for fungi and incubated for 24 h at 37 °C. Then, the cultures were seeded on Mueller–Hinton agar (BioMaxima, Lublin, Poland) or Sabouraud dextrose agar (SDA, BioMaxima, Lublin, Poland) plates, respectively, and incubated as just mentioned. These agar cultures were used for further microbiological assays. Cell densities for all assays were adjusted spectrophotometrically (Multiskan GO Microplate Spectrophotometer, Thermo Fisher Scientific, Vantaa, Finland) at 600 and 660 nm for bacteria and fungi, respectively.
(§2) The assay was performed to evaluate the effect of the lipopeptides in preventing biofilm formation. The preparation of inoculums was followed by a ca. 500-fold dilution of the 24 h cultures of microorganisms. Briefly, 50 μL of the compounds in the concentration range, diluted in appropriate medium, were prepared on 96-well polystyrene flat-bottom plates. Subsequently, the 50 μL of the bacterial/fungal inoculums were added to reach the same microbial density as that in the MBEC assay. After 24 h of incubation at 37 °C, the wells were rinsed three times with PBS and the fresh media with resazurin (4 g/L) were added. The MBICs were read after 1 h. All experiments were conducted in triplicate.

[3] = tested on: Candida glabrata ATCC 15126; settings: ATCC 15126, 24 h
Protocol: as §1, §2

[4] = tested on: Pseudomonas aeruginosa ATCC 9027; settings: ATCC 9027, 24 h
Protocol: as §1, §2

[5] = tested on: Candida albicans ATCC 10231; settings: ATCC 10231, 24 h
Protocol: as §1, §2

[6] = tested on: Staphylococcus aureus ATCC 25923; settings: ATCC 25923, 24 h
Protocol: as §1, §2

[7] = tested on: Candida tropicalis PCM 2709-FY; settings: PCM 2709-FY, 24 h
Protocol: as §1, §2

[8] = tested on: Escherichia coli ATCC 25922; settings: ATCC 25922, 24 h
Protocol: as §1, §2

[9] = tested on: Candida lipolytica PCM 2680-FY; settings: 24 h
Protocol: as §1, §2

[10] = tested on: Staphylococcus epidermidis ATCC 14990; settings: ATCC 14990, 18 h
Summary of the method: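 CLSI microdilution. Inocula: bacteria 5 × 10^5 CFU/mL (MHB), yeasts 2 × 10^3 CFU/mL (RPMI-1640, 2% D-glucose). Lipopeptides 0.5–256 μg/mL; 37 °C, 18 h/24 h resp.; visual MIC, n=3.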

[11] = tested on: Candida albicans ATCC 10231; settings: ATCC 10231, 24 h; remark: listed apart in the source
Summary of the method: (§3)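 MIC = lowest lipopeptide concentration (range 0.5–256 μg/mL) with no noticeable growth, scored by eye. Bacteria tested in MHB at 5 × 10^5 CFU/mL for 18 h; Candida in RPMI-1640 + 2% D-glucose at 2 × 10^3 CFU/mL for 24 h; both at 37 °C.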

[12] = tested on: Candida tropicalis PCM 2709-FY; settings: PCM 2709-FY, 24 h; remark: listed apart in the source
Summary of the method: as §3

## CCCCCCCCCCCCCCCC(=O)N[C@@H](CCCNC(=N)N)C(=O)N[C@@H](CCCCN)C(=O)N[C@@H](CCCCN)C(=O)N[C@@H](CCCCN)C(N)=O [L3, C16-RKKK-NH2] (Palmitoyl-RKKK-NH2)
[1]
  HC50: 79.1 ± 6.1 µg/mL
[2]
  MBIC S. epidermidis: 16 µg/mL
[3]
  MBIC C. glabrata: 64 µg/mL
[4]
  MBIC P. aeruginosa: 64 µg/mL
[5]
  MBIC C. albicans: 64 µg/mL
[6]
  MBIC S. aureus: 32 µg/mL
[7]
  MBIC C. tropicalis: 16 µg/mL
[8]
  MBIC E. coli: 32 µg/mL
[9]
  MBIC C. lipolytica: 16 µg/mL
[10]
  MIC S. epidermidis: 8 µg/mL (≈ 10 µM)
[11]
  MIC C. albicans: 8 µg/mL (≈ 10 µM)
[12]
  MIC C. tropicalis: 8 µg/mL (≈ 10 µM)
